Columns and labels:
[1] = target: TNFα (Homo sapiens, UniProt P01375); assay: Immunoassay binding test, TNFa; conditions: compounds 100 to 0.78 μM; TNFα 10 ng/ml, receptor 100 ng/ml; read-out: BINDING TNF IC50
Protocol: Microtiter plates (96 wells) are covered with 100 μl of receptor per well, and incubated overnight at 4° C. The following day, after 2 washes in PBS/Tween20, the plates are saturated with 150 μl of PBS/BSA 2% per well, for 2 h at 37° C. […] The cytokine is diluted in series (six concentrations) in a final volume of 120 μl per well. […] The different mixtures are incubated for 2 h at 37° C. 100 μl of each mixture are then transferred to the microtiter plate, respecting the plate plan previously defined and incubated overnight at 4° C. After three washes, 100 μl of biotinylated anti-cytokine secondary antibody are added to each well, then incubated for 2 h at 37° C. After three washes, 100 μl of Avidin-HRP (1/500th dilution) are added and incubated for 30 minutes at 37° C. […] The plates are then read with a spectrophotometer at 450 nm, measuring the optical density for each well.
(§1) This binding test is carried out with different cytokines: TNFa, IL-4, IL-6 and IL-13. For IL-6, the incubation of molecules with the cytokine also requires the presence of IL-6Ra at a final concentration of 200 ng/ml.
(§2) The final concentrations used for each of the cytokines are presented below: […]

[2] = target: TNFa/TNFRI interaction (Homo sapiens, UniProt P01375); assay: TNFa/TNFRI interaction displacement test; assay type: binding; conditions: for Displacement EC50 TNFa in presence of compound: Difference: Compound EC50 minus SPD304 EC50; for Displacement (%): compounds at 50 μM, human TNFRI 100 ng/ml;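 on Displacement EC50 TNFa in presence of compound: Difference: SPD304 reference at 20 µM final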
Chain of TNFa/TNFRI interaction (P01375 77-233 limits assumed): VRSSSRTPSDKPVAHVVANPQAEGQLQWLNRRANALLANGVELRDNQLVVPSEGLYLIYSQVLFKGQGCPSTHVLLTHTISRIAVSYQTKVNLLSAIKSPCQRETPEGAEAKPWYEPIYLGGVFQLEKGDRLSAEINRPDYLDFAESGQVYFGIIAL
Protocol: Microtiter plates (96 wells) are covered with 100 μl per well of human TNFRI, at a concentration of 100 ng/ml, then incubated overnight at 4° C. The following day, after two washes in PBS/Tween20, the plates are saturated with 150 μl of PBS/BSA 2% for 2 h at 37° C.
100 μl of each mixture are then transferred to the microtiter plate, respecting the established plate plan and incubated overnight at 4° C.
After three washes, 100 μl of biotinylated anti-cytokine secondary antibody are added to each well and incubated for 2 h at 37° C. After three washes, 100 Avl Avidin-HRP (dilution 1/500th) are added and incubated for 30 minutes at 37° C. […] The plates are then read with a spectrophotometer at 450 nm, measuring the optical density (OD) for each well.

[3] = target: T1, IL-4 (Homo sapiens, UniProt P05112); assay: Immunoassay binding test, IL-4; conditions: for IC50: IL-4 400 ng/ml, receptor 100 ng/ml, read-out: BINDING IL4 IC50
T1 sequence (P05112 25-153): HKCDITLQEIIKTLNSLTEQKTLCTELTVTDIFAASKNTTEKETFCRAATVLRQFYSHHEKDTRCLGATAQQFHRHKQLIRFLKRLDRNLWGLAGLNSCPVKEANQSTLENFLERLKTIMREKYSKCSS
Protocol: (§3) Microtiter plates (96 wells) are covered with 100 μl of receptor per well, and incubated overnight at 4° C. The following day, after 2 washes in PBS/Tween20, the plates are saturated with 150 μl of PBS/BSA 2% per well, for 2 h at 37° C. Synthetic compounds are diluted in series (final concentrations: 100 to 0.78 μM) then a fixed amount of cytokine in PBS/BSA 1% is added to the compounds, in a final volume of 120 μl per well. […] The cytokine is diluted in series (six concentrations) in a final volume of 120 μl per well. The cytokine is used in the absence of small molecule as well as the range of SPD304 as positive controls and the absence of cytokine and synthetic molecule as negative control. The different mixtures are incubated for 2 h at 37° C. 100 μl of each mixture are then transferred to the microtiter plate, respecting the plate plan previously defined and incubated overnight at 4° C. After three washes, 100 μl of biotinylated anti-cytokine secondary antibody are added to each well, then incubated for 2 h at 37° C. After three washes, 100 μl of Avidin-HRP (1/500th dilution) are added and incubated for 30 minutes at 37° C. […] The plates are then read with a spectrophotometer at 450 nm, measuring the optical density for each well.
as §1, §2

[4] = target: IL-13 (Homo sapiens, UniProt P35225); assay: Immunoassay binding test, IL-13; conditions: for IC50: IL-13 400 ng/ml, receptor 100 ng/ml, read-out: BINDING IL13 IC50
Chain of IL-13 (P35225 25-146, species assumed): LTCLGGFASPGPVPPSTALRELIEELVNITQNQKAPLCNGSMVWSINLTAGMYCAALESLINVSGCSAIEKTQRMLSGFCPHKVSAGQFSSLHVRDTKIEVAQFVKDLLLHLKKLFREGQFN
Protocol: Microtiter plates (96 wells) are covered with 100 μl of receptor per well, and incubated overnight at 4° C. The following day, after 2 washes in PBS/Tween20, the plates are saturated with 150 μl of PBS/BSA 2% per well, for 2 h at 37° C. Synthetic compounds are diluted in series (final concentrations: 100 to 0.78 μM) then a fixed amount of cytokine in PBS/BSA 1% is added to the compounds, in a final volume of 120 μl per well. […] The cytokine is diluted in series (six concentrations) in a final volume of 120 μl per well. […] The different mixtures are incubated for 2 h at 37° C. 100 μl of each mixture are then transferred to the microtiter plate, respecting the plate plan previously defined and incubated overnight at 4° C. After three washes, 100 μl of biotinylated anti-cytokine secondary antibody are added to each well, then incubated for 2 h at 37° C. After three washes, 100 μl of Avidin-HRP (1/500th dilution) are added and incubated for 30 minutes at 37° C. […] The plates are then read with a spectrophotometer at 450 nm, measuring the optical density for each well.
as §1, §2

[5] = target: IL-6 (Homo sapiens, UniProt P05231); assay: Immunoassay binding test, IL-6 (gp130 receptor, IL-6Ra present); conditions: IL-6Ra 200 ng/ml
Chain of IL-6 (P05231 30-212, species assumed): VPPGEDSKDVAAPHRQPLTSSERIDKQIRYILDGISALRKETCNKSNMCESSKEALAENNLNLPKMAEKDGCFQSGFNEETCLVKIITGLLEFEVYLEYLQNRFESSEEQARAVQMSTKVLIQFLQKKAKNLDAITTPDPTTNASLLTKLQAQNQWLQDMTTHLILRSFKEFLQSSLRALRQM
Protocol: as §3, §1, §2

Chain of TNFα (P01375 77-233 limits assumed, species assumed): as the sequence (P01375 77-233 limits assumed) above

Row | Compound | IC50 [1] [µM] | Displacement EC50 TNFa in presence of compound: Difference [2] | Displacement (%) [2] [%] | BINDING IL4 % Neutra at 100 μM [3] [%] | IC50 [3] [µM] | BINDING IL13 % Neutra at 100 μM [4] [%] | IC50 [4] [µM] | BINDING IL6 % Neutra at 100 μM [5] [%]
1 | O=S(=O)(c1ccccc1)n1cc(CN(CCCNC2CCCCC2)Cc2ccncc2)c2ccccc21 [Compound 8] | 12.2 | 10.9 ng/mL | 168 | 98.1 | 5.3 | 81.7 | > 50 | 3.3
2 | CN(CCCN(Cc1cccnc1)Cc1cn(S(=O)(=O)c2ccccc2)c2ccccc12)C1CCCCC1 [Compound 9] | 7.3 | 4.3 ng/mL | 175 | 94.4 | 8 | 59.7 | > 50 | 21
3 | FC(F)(F)c1cccc(-n2cc(CN(CCCNC3CCCCC3)Cc3cccnc3)c3ccccc32)c1 [Compound 10] | 23 | – | 121 | 96.4 | 5.5 | 91.1 | > 50 | 10.7
4 | CN(CCCN(Cc1ccncc1)Cc1cn(S(=O)(=O)c2ccccc2)c2ccccc12)C1CCCCC1 [Compound 11] | 4.4 | – | 215 | 97.6 | 6.2 | 90.2 | > 50 | −3
5 | FC(F)(F)c1cccc(-n2cc(CN(CCCNC3CCCCC3)Cc3ccncc3)c3ccccc32)c1 [Compound 12] | 6.8 | 14.2 ng/mL | 172 | 96.3 | 12.3 | 58.2 | > 50 | 1.6
6 | CN(CCCN(Cc1cccnc1)Cc1cn(-c2cccc(C(F)(F)F)c2)c2ccccc12)C1CCCCC1 [Compound 13] | 4.3 | 6.4 ng/mL | 186 | 97.9 | 5 | 85.2 | > 50 | 8.9
7 | CN(CCCN(Cc1ccncc1)Cc1cn(-c2cccc(C(F)(F)F)c2)c2ccccc12)C1CCCCC1 [Compound 14] | 11.8 | – | 149 | 98.4 | 5.3 | 91.2 | > 50 | 2.8
8 | O=S(=O)(c1ccccc1)n1cc(CN(CCCCNC2CCCCC2)Cc2cccnc2)c2ccccc21 [Compound 15] | 8.1 | 5.1 ng/mL | 167 | 99 | 6.3 | 94.8 | > 50 | 11.5
9 | O=S(=O)(c1ccccc1)n1cc(CN(CCCCNC2CCCCC2)Cc2ccncc2)c2ccccc21 [Compound 16] | 5.4 | 4.7 ng/mL | 165 | 99.5 | 4.8 | 88.2 | > 50 | 15.7
10 | CN(CCCCN(Cc1cccnc1)Cc1cn(S(=O)(=O)c2ccccc2)c2ccccc12)C1CCCCC1 [Compound 17] | 1.1 | – | 133 | 97.9 | 5 | 87.7 | > 50 | 20.7
11 | CN(CCCCN(Cc1ccncc1)Cc1cn(S(=O)(=O)c2ccccc2)c2ccccc12)C1CCCCC1 [Compound 18] | 2.2 | Difference = 6 ng/ml | 145 | 98.4 | 5.3 | 94.2 | 80.9 | 16.3
12 | O=S(=O)(c1ccccc1)n1cc(CN(Cc2ccnc(F)c2)CC2CCCN(C3CCCCC3)C2)c2ccccc21 (stereo not shown) [Compound 19] | 10.9 | 9.9 ng/mL | 169 | 99 | 6.3 | 98.1 | > 50 | 12.6

Now from value to molecule:

Row | IC50 [1] [µM] | Displacement EC50 TNFa in presence of compound: Difference [2] | Displacement (%) [2] [%] | BINDING IL4 % Neutra at 100 μM [3] [%] | IC50 [3] [µM] | BINDING IL13 % Neutra at 100 μM [4] [%] | IC50 [4] [µM] | BINDING IL6 % Neutra at 100 μM [5] [%] | Compound
13 | 19.7 | – | 88 | 99.5 | 4.8 | 97.5 | 6.2 | 18.5 | Fc1cc(CN(Cc2cn(-c3cccc(C(F)(F)F)c3)c3ccccc23)CC2CCCN(C3CCCCC3)C2)ccn1 (stereo not shown) [Compound 20]
14 | 14.1 | 4.9 ng/mL | 141 | 98 | 2.1 | 94.6 | 19.5 | 3.7 | FC(F)(F)c1cccc(-n2cc(CN(CCCCNC3CCCCC3)Cc3cccnc3)c3ccccc32)c1 [Compound 21]
15 | 16.9 | – | 120 | 98.4 | 4.1 | 95.2 | > 50 | -1.3 | FC(F)(F)c1cccc(-n2cc(CN(CCCCNC3CCCCC3)Cc3ccncc3)c3ccccc32)c1 [Compound 22]
16 | 9.3 | 5.5 ng/mL | 140 | 98.1 | 4.9 | 85.8 | > 50 | 5.6 | CN(CCCCN(Cc1cccnc1)Cc1cn(-c2cccc(C(F)(F)F)c2)c2ccccc12)C1CCCCC1 [Compound 23]
17 | 13.5 | 6.3 ng/mL | 158 | 98.8 | 3.1 | 85.3 | > 50 | 3.6 | CN(CCCCN(Cc1ccncc1)Cc1cn(-c2cccc(C(F)(F)F)c2)c2ccccc12)C1CCCCC1 [Compound 24]

— patent US20230416239A1, “COMPOUNDS AND METHODS FOR TREATING A CYTOKINE-MEDIATED DISEASE” (CONSERVATOIRE NATIONAL DES ARTS ET MÉTIERS, priority 2020, published 2023)
